Columns and labels:
Experiment in all cases: relative viability (nuclei count vs DMSO), 5 days (fraction); higher = more cells survive
Ruboxistaurin + Olaparib = compound: CN(C)C[C@@H]1CCn2cc(c3ccccc32)C2=C(C(=O)NC2=O)c2cn(c3ccccc23)CCO1 [Ruboxistaurin] + O=C(c1cc(Cc2n[nH]c(=O)c3ccccc23)ccc1F)N1CCN(C(=O)C2CC2)CC1 [Olaparib] (partner 8 µM)
Method in brief: (§1)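 Relative viability divides the nuclei count in treated wells by that in vehicle wells. Lung cancer cell lines were seeded in 1536-well plates, dosed by pin tool the next day, and fixed and stained after 5 days in one step with final 0.05% Triton X-100, 1% formaldehyde and 1 ug/ml Hoechst. Dosing was a single drug or a fixed anchor-drug dose plus five library-drug doses (not always all listed) in √10 steps, and values are medians of duplicate plates imaged at 4×.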

[1] = compound: CN(C)C[C@@H]1CCn2cc(c3ccccc32)C2=C(C(=O)NC2=O)c2cn(c3ccccc23)CCO1 [Ruboxistaurin] + CS(=O)(=O)N1CCN(Cc2cc3nc(-c4cccc5[nH]ncc45)nc(N4CCOCC4)c3s2)CC1 [Pictilisib] (partner 1 µM)
Method in brief: as §1

Ruboxistaurin + AZD7762 = compound: CN(C)C[C@@H]1CCn2cc(c3ccccc32)C2=C(C(=O)NC2=O)c2cn(c3ccccc23)CCO1 [Ruboxistaurin] + NC(=O)Nc1cc(-c2cccc(F)c2)sc1C(=O)N[C@H]1CCCNC1 [AZD7762] (partner 0.2 µM)
Method in brief: as §1

[2] = compound: CN(C)C[C@@H]1CCn2cc(c3ccccc32)C2=C(C(=O)NC2=O)c2cn(c3ccccc23)CCO1 [Ruboxistaurin] + CC(=O)Nc1cccc(-n2c(=O)n(C3CC3)c(=O)c3c(Nc4ccc(I)cc4F)n(C)c(=O)c(C)c32)c1 [Trametinib] (partner 0.02 µM)
Method in brief: as §1

[3] = compound: CN(C)C[C@@H]1CCn2cc(c3ccccc32)C2=C(C(=O)NC2=O)c2cn(c3ccccc23)CCO1 [Ruboxistaurin] + C[C@@H](Oc1cc(-c2cnn(C3CCNCC3)c2)cnc1N)c1c(Cl)ccc(F)c1Cl [Crizotinib] (partner 1 µM)
Method in brief: as §1

With NCI-H358 the relative viability (Ruboxistaurin + Olaparib; first compound 0.08 µM) was 0.748, the relative viability (Ruboxistaurin + Olaparib; first compound 0.8 µM) was 0.587 and the relative viability (Ruboxistaurin + Olaparib; first compound 2.53 µM) was 0.604. For the same cell line, the relative viability (Ruboxistaurin + Olaparib; first compound 8 µM) was 0.458, the relative viability ([1]; first compound 0.08 µM) was 0.326 and the relative viability ([1]; first compound 0.8 µM) was 0.297. For the same cell line, the relative viability ([1]; first compound 2.53 µM) was 0.3, the relative viability ([1]; first compound 8 µM) was 0.235 and the relative viability (Ruboxistaurin + AZD7762; first compound 0.08 µM) was 0.593. It also gave a relative viability (Ruboxistaurin + AZD7762; first compound 0.8 µM) of 0.48, a relative viability (Ruboxistaurin + AZD7762; first compound 2.53 µM) of 0.519 and a relative viability (Ruboxistaurin + AZD7762; first compound 8 µM) of 0.49. It also gave a relative viability ([2]; first compound 0.08 µM) of 0.159, a relative viability ([2]; first compound 0.8 µM) of 0.116 and a relative viability ([2]; first compound 2.53 µM) of 0.125. It also gave a relative viability ([2]; first compound 8 µM) of 0.112, a relative viability ([3]; first compound 0.08 µM) of 0.518 and a relative viability ([3]; first compound 0.8 µM) of 0.517. For the same cell line, the relative viability ([3]; first compound 2.53 µM) was 0.609 and the relative viability ([3]; first compound 8 µM) was 0.573.

With 201T the relative viability (Ruboxistaurin + Olaparib; first compound 0.08 µM) was 0.821, the relative viability (Ruboxistaurin + Olaparib; first compound 0.8 µM) was 0.837 and the relative viability (Ruboxistaurin + Olaparib; first compound 2.53 µM) was 0.852. It also gave a relative viability (Ruboxistaurin + Olaparib; first compound 8 µM) of 0.909, a relative viability ([1]; first compound 0.08 µM) of 0.729 and a relative viability ([1]; first compound 0.8 µM) of 0.629. It also gave a relative viability ([1]; first compound 2.53 µM) of 0.742, a relative viability ([1]; first compound 8 µM) of 0.555 and a relative viability (Ruboxistaurin + AZD7762; first compound 0.08 µM) of 0.539. It also gave a relative viability (Ruboxistaurin + AZD7762; first compound 0.8 µM) of 0.549, a relative viability (Ruboxistaurin + AZD7762; first compound 2.53 µM) of 0.581 and a relative viability (Ruboxistaurin + AZD7762; first compound 8 µM) of 0.641. The relative viability ([2]; first compound 0.08 µM) was 0.739, the relative viability ([2]; first compound 0.8 µM) was 0.705 and the relative viability ([2]; first compound 2.53 µM) was 0.764. The relative viability ([2]; first compound 8 µM) was 0.747, the relative viability ([3]; first compound 0.08 µM) was 1.05 and the relative viability ([3]; first compound 0.8 µM) was 0.972. The relative viability ([3]; first compound 2.53 µM) was 1.08 and the relative viability ([3]; first compound 8 µM) was 1.05.

With PC-3 [JPC-3] the relative viability (Ruboxistaurin + Olaparib; first compound 0.08 µM) was 1.24, the relative viability (Ruboxistaurin + Olaparib; first compound 0.8 µM) was 1.09 and the relative viability (Ruboxistaurin + Olaparib; first compound 2.53 µM) was 1.08. For the same cell line, the relative viability (Ruboxistaurin + Olaparib; first compound 8 µM) was 1.17, the relative viability ([1]; first compound 0.08 µM) was 0.883 and the relative viability ([1]; first compound 0.8 µM) was 0.678. It also gave a relative viability ([1]; first compound 2.53 µM) of 0.742, a relative viability ([1]; first compound 8 µM) of 0.814 and a relative viability (Ruboxistaurin + AZD7762; first compound 0.08 µM) of 0.869. The relative viability (Ruboxistaurin + AZD7762; first compound 0.8 µM) was 0.754, the relative viability (Ruboxistaurin + AZD7762; first compound 2.53 µM) was 0.906 and the relative viability (Ruboxistaurin + AZD7762; first compound 8 µM) was 0.675. For the same cell line, the relative viability ([2]; first compound 0.08 µM) was 0.821, the relative viability ([2]; first compound 0.8 µM) was 0.653 and the relative viability ([2]; first compound 2.53 µM) was 0.715. It also gave a relative viability ([2]; first compound 8 µM) of 0.685, a relative viability ([3]; first compound 0.08 µM) of 1.03 and a relative viability ([3]; first compound 0.8 µM) of 0.958. The relative viability ([3]; first compound 2.53 µM) was 1 and the relative viability ([3]; first compound 8 µM) was 1.02.

In the case of NCI-H2405, the relative viability (Ruboxistaurin + Olaparib; first compound 0.08 µM) is reported as 0.918, the relative viability (Ruboxistaurin + Olaparib; first compound 0.8 µM) is reported as 0.774 and the relative viability (Ruboxistaurin + Olaparib; first compound 2.53 µM) is reported as 0.878. The relative viability (Ruboxistaurin + Olaparib; first compound 8 µM) was 0.874, the relative viability ([1]; first compound 0.08 µM) was 0.561 and the relative viability ([1]; first compound 0.8 µM) was 0.411. For the same cell line, the relative viability ([1]; first compound 2.53 µM) was 0.478, the relative viability ([1]; first compound 8 µM) was 0.33 and the relative viability (Ruboxistaurin + AZD7762; first compound 0.08 µM) was 0.817. It also gave a relative viability (Ruboxistaurin + AZD7762; first compound 0.8 µM) of 0.701, a relative viability (Ruboxistaurin + AZD7762; first compound 2.53 µM) of 0.8 and a relative viability (Ruboxistaurin + AZD7762; first compound 8 µM) of 0.715. It also gave a relative viability ([2]; first compound 0.08 µM) of 0.727, a relative viability ([2]; first compound 0.8 µM) of 0.597 and a relative viability ([2]; first compound 2.53 µM) of 0.727. For the same cell line, the relative viability ([2]; first compound 8 µM) was 0.616, the relative viability ([3]; first compound 0.08 µM) was 0.901 and the relative viability ([3]; first compound 0.8 µM) was 0.823. For the same cell line, the relative viability ([3]; first compound 2.53 µM) was 0.838 and the relative viability ([3]; first compound 8 µM) was 0.874.

Cell Line LXF-289 has a relative viability (Ruboxistaurin + Olaparib; first compound 0.08 µM) of 1.08, a relative viability (Ruboxistaurin + Olaparib; first compound 0.8 µM) of 1.01 and a relative viability (Ruboxistaurin + Olaparib; first compound 2.53 µM) of 1.07. It also gave a relative viability (Ruboxistaurin + Olaparib; first compound 8 µM) of 1.18, a relative viability ([1]; first compound 0.08 µM) of 0.815 and a relative viability ([1]; first compound 0.8 µM) of 0.718. For the same cell line, the relative viability ([1]; first compound 2.53 µM) was 0.736, the relative viability ([1]; first compound 8 µM) was 0.647 and the relative viability (Ruboxistaurin + AZD7762; first compound 0.08 µM) was 1.12. For the same cell line, the relative viability (Ruboxistaurin + AZD7762; first compound 0.8 µM) was 1.03, the relative viability (Ruboxistaurin + AZD7762; first compound 2.53 µM) was 1.07 and the relative viability (Ruboxistaurin + AZD7762; first compound 8 µM) was 1.17. For the same cell line, the relative viability ([2]; first compound 0.08 µM) was 0.653, the relative viability ([2]; first compound 0.8 µM) was 0.631 and the relative viability ([2]; first compound 2.53 µM) was 0.66. It also gave a relative viability ([2]; first compound 8 µM) of 0.684, a relative viability ([3]; first compound 0.08 µM) of 0.826 and a relative viability ([3]; first compound 0.8 µM) of 0.758. For the same cell line, the relative viability ([3]; first compound 2.53 µM) was 0.826 and the relative viability ([3]; first compound 8 µM) was 0.951.

EKVX was tested, and the relative viability (Ruboxistaurin + Olaparib; first compound 0.08 µM) was 0.923, the relative viability (Ruboxistaurin + Olaparib; first compound 0.8 µM) was 0.692 and the relative viability (Ruboxistaurin + Olaparib; first compound 2.53 µM) was 0.929. For the same cell line, the relative viability (Ruboxistaurin + Olaparib; first compound 8 µM) was 0.861, the relative viability ([1]; first compound 0.08 µM) was 0.53 and the relative viability ([1]; first compound 0.8 µM) was 0.423. The relative viability ([1]; first compound 2.53 µM) was 0.438, the relative viability ([1]; first compound 8 µM) was 0.354 and the relative viability (Ruboxistaurin + AZD7762; first compound 0.08 µM) was 0.607. It also gave a relative viability (Ruboxistaurin + AZD7762; first compound 0.8 µM) of 0.623, a relative viability (Ruboxistaurin + AZD7762; first compound 2.53 µM) of 0.649 and a relative viability (Ruboxistaurin + AZD7762; first compound 8 µM) of 0.656. For the same cell line, the relative viability ([2]; first compound 0.08 µM) was 0.359, the relative viability ([2]; first compound 0.8 µM) was 0.287 and the relative viability ([2]; first compound 2.53 µM) was 0.336. For the same cell line, the relative viability ([2]; first compound 8 µM) was 0.281, the relative viability ([3]; first compound 0.08 µM) was 1.09 and the relative viability ([3]; first compound 0.8 µM) was 0.989. The relative viability ([3]; first compound 2.53 µM) was 0.983 and the relative viability ([3]; first compound 8 µM) was 0.895.

A-427 was tested, and the relative viability (Ruboxistaurin + Olaparib; first compound 0.08 µM) was 0.728, the relative viability (Ruboxistaurin + Olaparib; first compound 0.8 µM) was 0.672 and the relative viability (Ruboxistaurin + Olaparib; first compound 2.53 µM) was 0.558. It also gave a relative viability (Ruboxistaurin + Olaparib; first compound 8 µM) of 0.534, a relative viability ([1]; first compound 0.08 µM) of 0.7 and a relative viability ([1]; first compound 0.8 µM) of 0.594. The relative viability ([1]; first compound 2.53 µM) was 0.738, the relative viability ([1]; first compound 8 µM) was 0.557 and the relative viability (Ruboxistaurin + AZD7762; first compound 0.08 µM) was 0.849. For the same cell line, the relative viability (Ruboxistaurin + AZD7762; first compound 0.8 µM) was 0.639, the relative viability (Ruboxistaurin + AZD7762; first compound 2.53 µM) was 0.709 and the relative viability (Ruboxistaurin + AZD7762; first compound 8 µM) was 0.516. For the same cell line, the relative viability ([2]; first compound 0.08 µM) was 0.88, the relative viability ([2]; first compound 0.8 µM) was 0.692 and the relative viability ([2]; first compound 2.53 µM) was 0.752. It also gave a relative viability ([2]; first compound 8 µM) of 0.548, a relative viability ([3]; first compound 0.08 µM) of 1.01 and a relative viability ([3]; first compound 0.8 µM) of 0.676. The relative viability ([3]; first compound 2.53 µM) was 0.911 and the relative viability ([3]; first compound 8 µM) was 0.732.

Cell Line ChaGo-K-1 has a relative viability (Ruboxistaurin + Olaparib; first compound 0.08 µM) of 0.431, a relative viability (Ruboxistaurin + Olaparib; first compound 0.8 µM) of 0.39 and a relative viability (Ruboxistaurin + Olaparib; first compound 2.53 µM) of 0.433. It also gave a relative viability (Ruboxistaurin + Olaparib; first compound 8 µM) of 0.444, a relative viability ([1]; first compound 0.08 µM) of 1.23 and a relative viability ([1]; first compound 0.8 µM) of 0.758. It also gave a relative viability ([1]; first compound 2.53 µM) of 0.655, a relative viability ([1]; first compound 8 µM) of 0.424 and a relative viability (Ruboxistaurin + AZD7762; first compound 0.08 µM) of 0.86. For the same cell line, the relative viability (Ruboxistaurin + AZD7762; first compound 0.8 µM) was 0.856, the relative viability (Ruboxistaurin + AZD7762; first compound 2.53 µM) was 0.908 and the relative viability (Ruboxistaurin + AZD7762; first compound 8 µM) was 0.911. The relative viability ([2]; first compound 0.08 µM) was 0.972, the relative viability ([2]; first compound 0.8 µM) was 0.814 and the relative viability ([2]; first compound 2.53 µM) was 0.941. For the same cell line, the relative viability ([2]; first compound 8 µM) was 0.956, the relative viability ([3]; first compound 0.08 µM) was 1.21 and the relative viability ([3]; first compound 0.8 µM) was 1.05. It also gave a relative viability ([3]; first compound 2.53 µM) of 1.11 and a relative viability ([3]; first compound 8 µM) of 1.2.

— the supplement of paper PMC10307832
